Experimental data: patent US20100130569A1, “PROPHYLACTIC OR THERAPEUTIC AGENT FOR POSTERIOR OCULAR DISEASE COMPRISING NON-ERGOT SELECTIVE D2 RECEPTOR AGONIST AS ACTIVE INGREDIENT” (SATEN PHARMACEUTICAL CO., LTD., priority 2007, published 2010)
Where a name gives a salt, the structure may show the parent alone. Read-outs that look alike come from different tables or passages of the source.

Experiments:
[1] = system: photoreceptor cell damage caused by light exposure; conditions: for suppressive effect on photoreceptor cell damage (in words): mouse models of light damage, summary of Table 2; for Suppression rate (%) based on a-wave / Suppression rate (%) based on b-wave: mouse, one hour before light exposure, ERG one day after
Description: After a 0.5% (w/v) tropicamide-0.5% phenylephrine hydrochloride ophthalmic solution was instilled into the eyes of a mouse to cause mydriasis, light damage was induced in the mouse by light exposure (exposure conditions: illuminance level: 5000 Lux, exposure time: 2 hours) with an apparatus for inducing light damage (Sakami Medical Instrument).
Compound A was dissolved in a 1% (w/v) methyl cellulose solution (prepared by dissolving methyl cellulose in purified water) at a concentration of 0.006, 0.02, 0.06 or 0.2 mg/ml, whereby solutions of Compound A were prepared. Each of the solutions of Compound A was orally administered once at a dose of 0.03, 0.1, 0.3 or 1 mg/kg one hour before light exposure. Compound B was also orally administered in the same manner. That is, Compound B was dissolved in a 1% (w/v) methyl cellulose solution at a concentration of 0.02 or 0.2 mg/ml, whereby solutions of Compound B were prepared. Each of the solutions of Compound B was orally administered once at a dose of 0.1 or 1 mg/kg one hour before light exposure. In a vehicle administration group, a 1% (w/v) methyl cellulose solution was administered in the same manner.
One day after light exposure, each mouse was given general anesthesia by intramuscular administration of 2 ml/kg of a mixed solution of a 5% (w/v) ketamine hydrochloride injectable solution, a 2% xylazine hydrochloride injectable solution and physiological saline (7:1:8), and a 0.5% (w/v) tropicamide-0.5% phenylephrine hydrochloride ophthalmic solution was instilled into the eyes to cause mydriasis. Then, the electroretinogram (ERG) was measured using portable ERG & VEP LE-3000 (Tomey Corporation) (measurement conditions: stimulus luminance: 3000 cd/m^2, stimulus duration: 10 msec, background light luminance: 0 cd/m^2), and a- and b-wave amplitudes were calculated from the obtained waveforms. Then, the suppression rate (%) of the drug to be evaluated against the decrease in a- and b-wave amplitudes (photoreceptor cell damage) caused by light exposure was calculated in accordance with Equations 3 and 4. The case number in each administration group was 6 to 8 per group, and the mean value was used for calculating the suppression rate.
Suppression rate against photoreceptor cell damage (%) based on a-wave=(AAZ−AAY)/(AAX−AAY)×100 [Equation 3]
AAX: a-wave amplitude in normal (untreated) group AAY: a-wave amplitude in group with light exposure and vehicle administration AAZ: a-wave amplitude in group with light exposure and drug administration
Suppression rate against photoreceptor cell damage (%) based on b-wave=(ABZ−ABY)/(ABX−ABY)×100 [Equation 4]
ABX: b-wave amplitude in normal (untreated) group ABY: b-wave amplitude in group with light exposure and vehicle administration ABZ: b-wave amplitude in group with light exposure and drug administration

[2] = system: laser-induced choroidal neovascularization; assay: rat models of krypton laser-induced choroidal neovascularization; format: in vivo; conditions: for inhibitory effect on neovascularization in the choroid (in words): rat models of laser-induced choroidal neovascularization, summary of Table 1; for Suppression rate (%) (inhibition rate of choroidal neovascularization incidence): rat, day 7 after photocoagulation, vs vehicle
Description: The photocoagulation was performed in a posterior fundus at eight spots per eye sparsely by focusing on the retinal deep layer avoiding thick retinal blood vessels (coagulation conditions: spot size: 100 μm, output: 100 mW, coagulation time: 0.1 sec). After the photocoagulation, the ocular fundus was photographed, and the site where the laser was irradiated was confirmed.
Each of the solutions of Compound A at such concentrations was orally administered once daily at a dose of 0.3 mg/kg or 1 mg/kg starting from the day of photocoagulation surgery for 7 days including the day of surgery. […] Each of the solutions of Compound B at such concentrations was orally administered once daily at a dose of 0.3 mg/kg or 1 mg/kg starting from the day of photocoagulation surgery for 7 days including the day of surgery. On the other hand, Compound C was dissolved in PBS (phosphate buffer) at a concentration of 100 mg/ml, and the resulting solution of Compound C was intraperitoneally administered once daily at a dose of 100 mg/kg starting from the day of photocoagulation surgery for […] the day of surgery.
In the fluorescence fundus photography, a spot where fluorescence leakage was not observed (absence of neovascularization) was judged as negative, and a spot where fluorescence leakage was observed was judged as positive (presence of neovascularization). When there are two photocoagulation sites where a little fluorescence leakage was observed, they were judged as positive (presence of neovascularization). […] The case number in each administration group is 7 to 8.
Choroidal neovascularization incidence rate (%)=(Number of positive spots/total number of photocoagulation sites)×100 [Equation 1]
Inhibition rate (%)=(A0−Ax)/A0×100 [Equation 2]
A0: Choroidal neovascularization incidence rate of vehicle administration group Ax: Choroidal neovascularization incidence rate of drug administration group

[3] = system: thrombin-induced retinal vascular hyperpermeability
Description: A rat was given general anesthesia by intramuscular administration of 1 ml/kg of a mixed solution of a 5% (w/v) ketamine hydrochloride injectable solution and a 2% xylazine hydrochloride injectable solution (7:1), and a 0.5% (w/v) tropicamide-0.5% phenylephrine hydrochloride ophthalmic solution was instilled into the eyes to cause mydriasis. Then, 5 μl of thrombin (600 U/mL) was injected into the vitreous body using a 33-gauge needle so as not to hurt the lens and retina. To a rat in a normal group, PBS (phosphate buffer) was injected instead of thrombin.
In a vehicle administration group, a 1% (w/v) methyl cellulose solution was administered in the same manner.
At 24 hours after intravitreal injection of thrombin, each rat was killed by exsanguination, and then, the eyeball of the rat was enucleated while avoiding contamination with blood. […] The collected vitreous body was appropriately diluted with purified water and the protein concentration was determined by the Bradford method. The thus determined protein concentration in the vitreous body was used as an index of retinal vascular permeability. Then, the suppression rate (%) of the drug to be evaluated against the retinal vascular hyperpermeability induced by thrombin was calculated in accordance with Equation 5. […]

[4] = 0.3 mg/kg orally once daily for 7 days
[5] = 1 mg/kg orally once daily for 7 days

| SMILES | suppressive effect on photoreceptor cell damage (in words) [1] | Suppression rate (%) based on a-wave ([1]; 0.1 mg/kg orally once) | Suppression rate (%) based on b-wave ([1]; 0.1 mg/kg orally once) | Suppression rate (%) based on a-wave ([1]; 1 mg/kg orally once) | Suppression rate (%) based on b-wave ([1]; 1 mg/kg orally once) | inhibitory effect on neovascularization in the choroid (in words) [2] | Suppression rate (%) (inhibition rate of choroidal neovascularization incidence) [2, 4] | Suppression rate (%) (inhibition rate of choroidal neovascularization incidence) [2, 5] | Suppression rate (%) (inhibition rate of choroidal neovascularization incidence) ([2]; 100 mg/kg intraperitoneally once daily) | Suppression rate (%) based on a-wave ([1]; 0.03 mg/kg orally once) | Suppression rate (%) based on b-wave ([1]; 0.03 mg/kg orally once) | Suppression rate (%) based on a-wave ([1]; 0.3 mg/kg orally once) | Suppression rate (%) based on b-wave ([1]; 0.3 mg/kg orally once) | suppressive effect on retinal vascular hyperpermeability (in words) ([3]; rat models of thrombin-induced retinal vascular hyperpermeability, summary of Table 3) | Suppression rate (%) against retinal vascular permeability ([3]; rat, 1 mg/kg orally immediately before and 20 hours after intravitreal thrombin, vitreous protein at 24 hours) |
| --- | --- | --- | --- | --- | --- | --- | --- | --- | --- | --- | --- | --- | --- | --- | --- |
| CC(C)C[C@H]1C(=O)N2CCC[C@H]2[C@]2(O)O[C@](NC(=O)[C@@H]3C=C4c5cccc6[nH]c(Br)c(c56)C[C@H]4N(C)C3)(C(C)C)C(=O)N12 [Compound B, bromocriptine mesilate] | hardly or not at all observed | 0.2% | −3.8% | 4.8% | 4.9% | hardly or not at all observed | −2.1% | 4.1% |  |  |  |  |  |  |  |
| Cl.NCCc1ccc(O)c(O)c1 [Compound C, dopamine hydrochloride] |  |  |  |  |  | hardly or not at all observed |  |  | 11.8% |  |  |  |  |  |  |
| CCCN[C@H]1CCc2nc(N)sc2C1 [Compound A, pramipexole hydrochloride] | significantly suppresses photoreceptor cell damage | 47.3% | 44.1% | 102.0% | 92.1% | inhibits choroidal neovascularization | 60.9% | 60.9% |  | 41.4% | 49.2% | 70.0% | 72.1% | excellent suppressive effect on retinal vascular hyperpermeability | 9.9% |
